Literature values, collected in patent US8058260B2, “2′-C-methyl-ribofuranosyl cytidine prodrugs, pharmaceutical compositions and uses thereof” (XenoPort, Inc., priority 2006, dated 2011).
Read-outs that look alike come from different tables or passages of the source.

How the values were obtained:
HCV = conditions: clinical evaluation as a treatment for HCV
[1] = human, in vivo
HCV NS5B polymerase = HCV NS5B polymerase (Hepatitis C virus genotype 1b, UniProt P26663)
Chain of HCV NS5B polymerase (P26663 2420-3010): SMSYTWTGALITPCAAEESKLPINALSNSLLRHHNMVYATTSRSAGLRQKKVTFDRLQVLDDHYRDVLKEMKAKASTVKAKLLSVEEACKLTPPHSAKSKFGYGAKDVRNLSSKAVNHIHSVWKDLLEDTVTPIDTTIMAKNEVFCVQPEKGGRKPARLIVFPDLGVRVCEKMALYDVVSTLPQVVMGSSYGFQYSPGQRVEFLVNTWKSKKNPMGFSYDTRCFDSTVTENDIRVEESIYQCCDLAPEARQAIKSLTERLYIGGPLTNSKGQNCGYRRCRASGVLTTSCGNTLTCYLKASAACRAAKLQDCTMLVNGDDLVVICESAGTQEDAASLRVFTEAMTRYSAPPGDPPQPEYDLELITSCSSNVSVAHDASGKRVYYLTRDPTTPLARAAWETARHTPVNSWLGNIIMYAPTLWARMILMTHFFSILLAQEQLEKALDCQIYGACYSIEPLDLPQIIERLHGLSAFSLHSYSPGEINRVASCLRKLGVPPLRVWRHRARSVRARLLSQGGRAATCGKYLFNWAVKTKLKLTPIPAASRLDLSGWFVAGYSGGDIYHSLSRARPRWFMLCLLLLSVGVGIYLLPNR

| Compound | antiviral activity (HCV) | bioavailability [1] | gastrointestinal toxicity / side-effects (in vivo, po) | inhibitory activity against the HCV NS5B polymerase (HCV NS5B polymerase) | gastrointestinal toxicity / side-effects (oral administration, nausea, vomiting, diarrhea in some patients) |
| --- | --- | --- | --- | --- | --- |
| CC(C)[C@H](N)C(=O)O[C@@H]1[C@@H](CO)O[C@@H](n2ccc(N)nc2=O)[C@]1(C)O [NM 283, 3′-O-L-valinyl ester of β-D-2′-C-methyl-ribofuranosyl cytidine] | significant antiviral activity | good bioavailability | gastrointestinal side-effects | – | – |
| C[C@@]1(O)[C@H](O)[C@@H](CO)O[C@H]1n1ccc(N)nc1=O [β-D-2′-C-methyl-ribofuranosyl cytidine] | – | – | – | potent inhibitory activity | gastrointestinal (GI) toxicity |
